{"source": "patent US5279834A", "about": "“Pharmaceutical or cosmetic composition containing hydroquinone and kojic acid” (priority 1987, dated 1994)", "origin": "cited, not measured here", "details": "background statement; The Journal of Investigative Dermatology 73, 354-358 (1979)", "data": [{"smiles": "CC1=C(/C=C/C(C)=C/C=C/C(C)=C/C(=O)O)C(C)(C)CCC1", "note": "[vitamin A acid]", "values": [{"measurement": "irritant character", "result": "well known for its irritant character"}]}]}
